Measurements taken from patent US8183235B2, “Dihydronaphthalene compound and use thereof” (Tokyo University of Science Educational Foundation …, priority 2007, dated 2012).
pIC50: −log10 of the molar value. Structures can show the parent of a compound that is named as a salt. Residues, ends and D or L forms follow the SMILES beside them. *: point of attachment. Cbz = O=C(OCc1ccccc1)*

Columns and labels:
[1] = target: 20S proteasome chymotrypsin-like activity (Homo sapiens, UniProt P28074); experiment: Chymotrypsin-like activity inhibition test; type: biochemical; details: for remaining activity at 10 µM: read-out: % Control, Chymotrypsin-like Activity
[2] = target: 20S proteasome trypsin-like activity (Homo sapiens, UniProt Q99436); experiment: Trypsin-like activity inhibition test; type: biochemical; details: for remaining activity at 10 µM: read-out: % Control, Trypsin-like Activity
OVCAR-8 = experiment: Proliferation inhibition of ovarian cancer cells; type: cell-based; details: Homo sapiens
Method: (§1) As a comparison for the inhibition activity, tamoxifen citrate (TAM) was used. In the Table, the concentration units are μM.
(§2) In the same way as in Example 9, the proliferation inhibition activity of naforidaifens A to G was measured with respect to five types of ovarian cancer cells (OVCAR-3, OVCAR-4, OVCAR-5, OVCAR-8, AND SK-OV-3). In the Table, the concentration units are μM.

OVCAR-3 = experiment: Proliferation inhibition of ovarian cancer cells; type: cell-based; details: Homo sapiens
Method: as §1, §2

OVCAR-5 = experiment: Proliferation inhibition of ovarian cancer cells; type: cell-based; details: Homo sapiens
Method: as §1, §2

OVCAR-4 = experiment: Proliferation inhibition of ovarian cancer cells; type: cell-based; details: Homo sapiens
Method: as §1, §2

SK-OV-3 = experiment: Proliferation inhibition of ovarian cancer cells; type: cell-based; details: Homo sapiens
Method: as §1, §2

20S proteasome = 20S proteasome (Homo sapiens, UniProt P28072+P28074+Q99436); experiment: Proteasome inhibition activity, overall judgement; type: biochemical; details: for Proteasome selectivity: judgement; for The evaluations (proteasome inhibition activity): overall judgement positive/negative
[3] = target: 20S proteasome caspase-like activity (Homo sapiens, UniProt P28072); experiment: Caspase-like activity inhibition test; type: biochemical; details: for remaining activity at 10 µM: read-out: % Control, Caspase-like Activity
HCT-15 = experiment: Proliferation inhibition of colon cancer cells; type: cell-based; details: Homo sapiens
Method: as §1
(§3) In the same way as in Example 9, the proliferation inhibition activity of naforidaifens A to G was measured with respect to five types of colon cancer cells (HCC2998, KM-12, HT-29, HCT-15, and HCT-116). In the Table, the concentration units are μM.

HCT-116 = experiment: Proliferation inhibition of colon cancer cells; type: cell-based; details: Homo sapiens
Method: as §1, §3

KM-12 = experiment: Proliferation inhibition of colon cancer cells; type: cell-based; details: Homo sapiens, KM12
Method: as §1, §3

HT-29 = experiment: Proliferation inhibition of colon cancer cells; type: cell-based; details: Homo sapiens
Method: as §1, §3

HCC2998 = experiment: Proliferation inhibition of colon cancer cells; type: cell-based; details: Homo sapiens, HCC 2998
Method: as §1, §3

Cathepsin B = experiment: Cathepsin-like activity inhibition test; type: biochemical
Method: Cathepsin-Like Activity Inhibition Test
(§4) 1) To 20S proteasome, naforidaifen B adjusted to a concentration of 10 μM was added, and incubated at 30° C. for 10 min.
2) To the above test system, fluorescence labeled cathepsin including a 20S proteasome segmenting sequence was added, and reacted for 1 hr at 30° C.
(§5) 3) The fluorescent substance (AMC) released by the above reaction was excited with 360 nm light and assayed with 460 nm light.
(§6) 4) A test system to which naforidaifen B was not added was measured in the same way as (1) to (3) above, and the enzyme activity for the case of using naforidaifen B was measured.
(§7) 5) Stepwise diluted solutions containing naforidaifen B were prepared, and after carrying out the same evaluations as in (1) to (4), the 50% inhibition concentration (IC50) was determined.
6) As a positive control of the enzyme activity, the known proteasome inhibitor Clasto-Lactacystin β-Lactone (Lactacystin activator) and MGI32 were evaluated with the steps (1) to (5).

SF-295 = experiment: Inhibition of propagation of central nervous system cancer cells (sulforhodamin B); type: cell-based; details: Homo sapiens, 48 h; SF-295, two days of cultivation
Excerpt: as §1

SF-268 = experiment: as above; type: cell-based; details: Homo sapiens, 48 h; SF-268, two days of cultivation
Excerpt: as §1

SF-539 = experiment: as above; type: cell-based; details: Homo sapiens, 48 h; SF-539, two days of cultivation
Excerpt: as §1

SNB-78 = experiment: as above; type: cell-based; details: Homo sapiens, 48 h; SNB-78, two days of cultivation
Excerpt: as §1

U251 = experiment: as above; type: cell-based; details: Homo sapiens, U-251, 48 h; U251, two days of cultivation
Excerpt: as §1

SNB-75 = experiment: as above; type: cell-based; details: Homo sapiens, 48 h; SNB-75, two days of cultivation
Excerpt: as §1

α-chymotrypsin = α-chymotrypsin (Bos taurus, UniProt P00766); experiment: α-Chymotrypsin-like activity inhibition test; type: biochemical
Method: α-Chymotrypsin-Like Activity Inhibition Test
as §4
2) To the above test system, fluorescence labeled α-chymotrypsin including a 20S proteasome segmenting sequence was added, and reacted for 1 hr at 30° C.
as §5, §6, §7
6) As a positive control of the enzyme activity, the well-known proteasome inhibitor Clasto-Lactacystin β-Lactone (Lactacystin activator) and MGI32 were evaluated with the steps (1) to (5).

MKN74 = experiment: Proliferation inhibition of stomach cancer cells; type: cell-based; details: Homo sapiens, MKN-74
Method: as §1
(§8) In the same way as in Example 9, the proliferation inhibition activity of naforidaifens A to G was measured with respect to six types of stomach cancer cells (St-4, MKN1, MKN7, MKN28, MKN45, MKN74). In the Table, the concentration units are μM.

MKN7 = experiment: Proliferation inhibition of stomach cancer cells; type: cell-based; details: Homo sapiens, MKN-7
Method: as §1, §8

MKN45 = experiment: Proliferation inhibition of stomach cancer cells; type: cell-based; details: Homo sapiens, MKN-45
Method: as §1, §8

St-4 = experiment: Proliferation inhibition of stomach cancer cells; type: cell-based; details: Homo sapiens
Method: as §1, §8

MKN28 = experiment: Proliferation inhibition of stomach cancer cells; type: cell-based; details: Homo sapiens, MKN-28
Method: as §1, §8

MKN1 = experiment: Proliferation inhibition of stomach cancer cells; type: cell-based; details: Homo sapiens, MKN-1
Method: as §1, §8

[4] = test system: central nervous system cancer cells; experiment: Proliferation inhibition, central nervous system cancer cell panel (summary); type: cell-based; details: read-out: cytotoxic activity (extent of effective concentration)
Excerpt: as §1

Row | SMILES | pIC50 [1] | GI50 (OVCAR-8) [µM] | GI50 (OVCAR-3) [nM] | GI50 (OVCAR-5) [nM] | GI50 (OVCAR-4) [nM] | GI50 (SK-OV-3) [µM] | remaining activity at 10 µM [1] [%] | GI50 (HCT-15) [nM] | GI50 (HCT-116) [nM] | GI50 (KM-12) [nM] | GI50 (HT-29) [nM] | GI50 (HCC2998) [nM] | GI50 (SF-295) [nM] | GI50 (SF-268) [nM] | GI50 (SF-539) [nM] | GI50 (SNB-78) [nM] | GI50 (U251) [nM] | GI50 (SNB-75) [nM] | GI50 (MKN74) [nM] | GI50 (MKN7) [nM] | also measured
1 | CC(C)[C@H](O)[C@@]12NC(=O)[C@H](C)[C@@H]1OC2=O [Clasto-Lactacystin β-Lactone, reference compound] | 7.41 | – | – | – | – | – | – | – | – | – | – | – | – | – | – | – | – | – | – | – | % Control, Chymotrypsin-like Activity ([1]; Concentration 10 μM): 0%
2 | c1ccc(C2=C(c3ccc(OCCN4CCOCC4)cc3)c3ccc(OCCN4CCOCC4)cc3CC2)cc1 [Naforidaifen D, 4-[4-(2-morpholine-1-yl-ethoxy)phenyl]-7-(2-morpholine-1-yl-ethoxy)-3-phenyl-1,2-dihydronaphthalene] | 5.17 | 25.7 | 17400 | 6920 | 18600 | 15.5 | 22.1 | 19100 | 14800 | 20000 | 12600 | 17800 | 14500 | 38900 | 15800 | 28800 | 15500 | 20400 | 19500 | 19500 | pIC50 [2]: 5.39; remaining activity at 10 µM [2]: 21.6%; Proteasome selectivity (20S proteasome): present; The evaluations (proteasome inhibition activity) (20S proteasome): positive; pIC50 [3]: 5.34; remaining activity at 10 µM [3]: 21.9%; Cathepsin B inhibition (Cathepsin B): none; α-chymotrypsin inhibition (α-chymotrypsin): none; GI50 (MKN45): 16600 nM; GI50 (St-4): 15500 nM; GI50 (MKN28): 45700 nM; GI50 (MKN1): 18600 nM
3 | CN(C)CCOc1ccc(C2=C(c3ccccc3)CCc3cc(OCCN(C)C)ccc32)cc1 [Naforidaifen A, 4-[4-(2-dimethylamino-1-yl-ethoxy)phenyl]-7-(2-dimethylamino-1-yl-ethoxy)-3-phenyl-1,2-dihydronaphthalene] | < 5.00 | 2.88 | 1620 | 1550 | 2140 | 2.29 | 99.5 | 1660 | 1100 | 1860 | 759 | 1480 | 1740 | 1950 | 1550 | 1820 | 1450 | 1480 | 1410 | 1580 | pIC50 [4]: 5.72 to 5.85; The evaluations (proteasome inhibition activity) (20S proteasome): negative; GI50 (MKN45): 1740 nM; GI50 (St-4): 1480 nM; GI50 (MKN28): 1820 nM; GI50 (MKN1): 1480 nM
4 | CC(C)C[C@@H](C=O)NC(=O)[C@H](CC(C)C)NC(=O)[C@H](CC(C)C)NC(=O)OCc1ccccc1 [MG132, reference compound] (Cbz-Leu-Leu-Leu-aldehyde) | – | – | – | – | – | – | 0 | – | – | – | – | – | – | – | – | – | – | – | – | – | –
5 | CC/C(=C(\c1ccccc1)c1ccc(OCCN(C)C)cc1)c1ccccc1 [TAM, tamoxifen citrate, reference compound] | – | 11.2 | 4680 | 4370 | 6030 | 20 | – | 5890 | 7240 | 3550 | 2340 | 2950 | 4170 | 12000 | 3720 | 13500 | 7760 | 5010 | 3240 | 5250 | GI50 (MKN45): 8320 nM; GI50 (St-4): 6310 nM; GI50 (MKN28): 6310 nM; GI50 (MKN1): 10200 nM
6 | c1ccc(C2=C(c3ccc(OCCN4CCCC4)cc3)c3ccc(OCCN4CCCC4)cc3CC2)cc1 [Naforidaifen B, 4-[4-(2-pyrrolidine-1-yl-ethoxy)phenyl]-7-(2-pyrrolidine-1-yl-ethoxy)-3-phenyl-1,2-dihydronaphthalene] | 5.34 | 3.8 | 1580 | 1620 | 1320 | 3.09 | 27.1 | 2340 | 1260 | 1950 | 1450 | 1580 | 1910 | 2090 | 1860 | 1910 | 1580 | 2000 | 1660 | 1580 | pIC50 [2]: 5.07; remaining activity at 10 µM [2]: 35.3%; Proteasome selectivity (20S proteasome): present; The evaluations (proteasome inhibition activity) (20S proteasome): positive; pIC50 [3]: 5.60; remaining activity at 10 µM [3]: 16.5%; Cathepsin B inhibition (Cathepsin B): none; α-chymotrypsin inhibition (α-chymotrypsin): none; GI50 (MKN45): 1660 nM; GI50 (St-4): 1860 nM; GI50 (MKN28): 2190 nM; GI50 (MKN1): 1480 nM
7 | CCN(CC)CCOc1ccc(C2=C(c3ccccc3)CCc3cc(OCCN(CC)CC)ccc32)cc1 [Naforidaifen E, 4-[4-(2-diethylamino-1-yl-ethoxy)phenyl]-7-(2-diethylamino-1-yl-ethoxy)-3-phenyl-1,2-dihydronaphthalene] | 5.00 | 2.45 | 1860 | 1580 | 2190 | 1.91 | 49.6 | 1580 | 1200 | 1950 | 813 | 1580 | 1820 | 1820 | 1860 | 1620 | 1510 | 1510 | 1230 | 1410 | pIC50 [2]: < 5.00; remaining activity at 10 µM [2]: 162%; Proteasome selectivity (20S proteasome): present; The evaluations (proteasome inhibition activity) (20S proteasome): positive; pIC50 [3]: < 5.00; remaining activity at 10 µM [3]: 54.6%; Cathepsin B inhibition (Cathepsin B): none; α-chymotrypsin inhibition (α-chymotrypsin): none; GI50 (MKN45): 1660 nM; GI50 (St-4): 1550 nM; GI50 (MKN28): 1820 nM; GI50 (MKN1): 1410 nM
